# Data as given in the NIST ThermoML archive (doi:10.1021/je9007662).
# Numbers after ± are expanded uncertainties.
# Test: mean ionic activity coefficient (dimensionless); mn = molality of the nth substance listed, in mol/kg
# Settings: 298.15 K, 101 kPa, Liquid
structure (smiles),measurement,setting,value
[Br-].[Cs+] [cesium bromide] + O,mean ionic activity coefficient,m1 = 0.1,0.75 ± 0.001
same,mean ionic activity coefficient,m1 = 0.2,0.689 ± 0.001
same,mean ionic activity coefficient,m1 = 0.3,0.652 ± 0.001
same,mean ionic activity coefficient,m1 = 0.4,0.625 ± 0.001
same,mean ionic activity coefficient,m1 = 0.5,0.604 ± 0.001
same,mean ionic activity coefficient,m1 = 0.6,0.587 ± 0.001
same,mean ionic activity coefficient,m1 = 0.7,0.573 ± 0.001
same,mean ionic activity coefficient,m1 = 0.8,0.561 ± 0.001
same,mean ionic activity coefficient,m1 = 0.9,0.551 ± 0.001
same,mean ionic activity coefficient,m1 = 1,0.542 ± 0.001
same,mean ionic activity coefficient,m1 = 1.2,0.526 ± 0.001
same,mean ionic activity coefficient,m1 = 1.4,0.514 ± 0.001
same,mean ionic activity coefficient,m1 = 1.6,0.504 ± 0.001
same,mean ionic activity coefficient,m1 = 1.8,0.495 ± 0.001
same,mean ionic activity coefficient,m1 = 2,0.488 ± 0.001
same,mean ionic activity coefficient,m1 = 2.5,0.475 ± 0.001
same,mean ionic activity coefficient,m1 = 3,0.466 ± 0.001
same,mean ionic activity coefficient,m1 = 3.5,0.461 ± 0.001
same,mean ionic activity coefficient,m1 = 4,0.46 ± 0.001
same,mean ionic activity coefficient,m1 = 4.5,0.46 ± 0.001
same,mean ionic activity coefficient,m1 = 5,0.463 ± 0.001
